Patent US20060223888A1, “Valproic acid analogues and pharmaceutical composition thereof” (priority 2002, published 2006)
One block for each compound: values may come before it.

Key:
[1] = system: rotarod test (neurotoxicity); experiment: Rotarod neurotoxicity test (TOX), rats, oral; type: in vivo
Method: Anticonvulsant testing was conducted at the antiepileptic screening facility of the National Institute for Neurological Disorders and Stroke in Rockville, Md. Initial tests were done in mice (i.p.) followed by oral and i.p. administration to rats. Neurotoxicity was evaluated with the rotarod test. Maximal electroshock (MES) and subcutaneous methylene tetrazole (SCMET) or pentylene tetrazole (PTZ) were the most common tests performed. Typical procedures are described below.
Rotorod Test. Acute drug induced neurotoxicity is detected in mice using the standard rotorod test. An untreated mouse, when placed on a 6 rpm rotation rod, can maintain its equilibrium for a prolonged period of time.
A number of VPA analogues and their sodium salts were tested for their efficacy as anticonvulsants and for their toxicity using the MES Assay and rotarod test. In particular, the following compounds (as shown in the structures below) were tested: 332059U (sodium salt of VPA), 325071 (known compound, tested for comparison), 325073A (metabolite of VPA), 332060U (4,4-difluoro-2-propylpentanoate, fluorinated analogue of VPA), 341031, and 341032U (conjugated (E,Z)-2,3′-diene VPA analogues).

PTZ-induced seizures = experiment: ED50 against PTZ-induced seizures, i.p.; type: in vivo; conditions: Rattus norvegicus, ip, male Sprague-Dawley rats (n = 8)
From the text: These compounds were investigated for anticonvulsant activity in mice^13 and rats (see results in Table 4) and found to be equivalent in potency to VPA.

[2] = children born to mothers treated with VPA; cited from earlier work
rat liver = conditions: cited from earlier work
[3] = system: Maximal Electroshock (MES) seizures; experiment: Maximal electroshock (MES) test, rats, oral, time to peak effect; type: in vivo; conditions: 50 mg/kg
Method: Anticonvulsant testing was conducted at the antiepileptic screening facility of the National Institute for Neurological Disorders and Stroke in Rockville, Md. Initial tests were done in mice (i.p.) followed by oral and i.p. administration to rats. Neurotoxicity was evaluated with the rotarod test. Maximal electroshock (MES) and subcutaneous methylene tetrazole (SCMET) or pentylene tetrazole (PTZ) were the most common tests performed. Typical procedures are described below. MES Assay. Male CD1/CR mice weighing from 25-35 g are administrated test compounds 15 minutes prior to MES. Mice are challenged by pulsed electrical stimulation (50 mA, 0.4 s duration, pulse width 0.5 ms, 60 pulses/sec) via corneal electrodes to induce seizure. Mice are observed post-stimulation for the onset of tonic seizures, and considered to have a tonic seizure only if there is a prolonged extension (>90° from plane of body) of the hind legs. […] Ten mice are used in each group. A number of VPA analogues and their sodium salts were tested for their efficacy as anticonvulsants and for their toxicity using the MES Assay and rotarod test.

[4] = Pharmacokinetics and tissue distribution (plasma, liver, brain) after i.p. administration; type: in vivo, male Sprague-Dawley rats; conditions: rat; for Affinity for / accumulation in the liver (in words): FIG. 1, Table 5
[5] = system: Subcutaneous Methylene Tetrazole (SCMET) seizures; experiment: Subcutaneous methylene tetrazole (SCMET) test, rats, oral, time to peak effect; type: in vivo; conditions: 75 mg/kg

Structure (SMILES): CCCC(CCC)C(=O)[O-].[Na+] [332059A, Sodium 2-propylpentanoate, reference compound]
TOX: N/F = number of animals that failed the rotarod test to numbers tested ([1]; 300 mg/kg, 0.25 h): 0/4
TOX: N/F = number of animals that failed the rotarod test to numbers tested ([1]; 300 mg/kg, 0.5 h): 0/4
TOX: N/F = number of animals that failed the rotarod test to numbers tested ([1]; 300 mg/kg, 1.0 h): 0/4
TOX: N/F = number of animals that failed the rotarod test to numbers tested ([1]; 300 mg/kg, 2.0 h): 0/4
TOX: N/F = number of animals that failed the rotarod test to numbers tested ([1]; 300 mg/kg, 4.0 h): 0/4
TOX: N/F = number of animals that failed the rotarod test to numbers tested ([1]; 400 mg/kg, 0.5 h): 0/4
TOX: N/F = number of animals that failed the rotarod test to numbers tested ([1]; 400 mg/kg, 1.0 h): 0/4
TOX: N/F = number of animals that failed the rotarod test to numbers tested ([1]; 400 mg/kg, 2.0 h): 0/4
ED50 (PTZ-induced seizures): 158 mg/kg
Neural tube defects leading to spina bifida, share of children born to treated mothers [2]: 1-2%

Structure (SMILES): C=CCC(CCC)C(=O)O (stereo not shown) [4-ene VPA, 2-propylpent-4-enoic acid]
Lipid accumulation in rat liver (rat liver): induce massive lipid accumulation in rat liver

Distribution to the brain (in words) ([4]; FIG. 1): rapid distribution to the brain
Affinity for / accumulation in the liver (in words) ([4]; listed as (E,Z)-2,3′-diene-VPA): markedly reduced affinities for liver
Structure (SMILES): C/C=C\C(=C/CC)C(=O)[O-].[Na+] [325073A, Sodium (2E)-2-[(1Z)-prop-1-en-1-yl]pent-2-enoate]
MES N/F = number of animals protected relative to number tested ([3]; 0.25 h): 2/4
MES N/F = number of animals protected relative to number tested ([3]; 0.5 h): 0/4
MES N/F = number of animals protected relative to number tested ([3]; 1.0 h): 0/4
MES N/F = number of animals protected relative to number tested ([3]; 2.0 h): 0/4
ED50 (PTZ-induced seizures): 168 mg/kg
Affinity for / accumulation in the liver (in words) ([4]; listed as (E,Z)-2,3′-diene VPA): significantly reduced affinity for the liver
SCMET N/F = number of animals protected relative to number tested ([5]; 0.25 h): 1/4
SCMET N/F = number of animals protected relative to number tested ([5]; 0.5 h): 0/4
SCMET N/F = number of animals protected relative to number tested ([5]; 1.0 h): 0/4
SCMET N/F = number of animals protected relative to number tested ([5]; 2.0 h): 0/4
SCMET N/F = number of animals protected relative to number tested ([5]; 4.0 h): 0/4

Structure (SMILES): C=C/C=C(\CCC)C(=O)O [(E)-2,4-diene-VPA, 2-propylpent-(E)-2,4-dienoic acid]
Lipid accumulation in rat liver (rat liver): induce massive lipid accumulation in rat liver
